Read-outs that look alike come from different tables or passages of the source.
Key:
[1] = target: T1, NS5B (Replizyme, UK), HCV genotype 1b Δ21 RdRp (UniProt P26663); type: biochemical, hepatitis C virus
T1 construct: other: Replizyme enzyme
Procedure: (§1) An RNA-dependant RNA polymerase assay was performed in a 96-well round bottom polypropylene plates (Costar) with a 50 μl reaction volume containing 20 mM HEPES pH 7.2-7.5 (Gibco), 1 mM DTT (Sigma), 0.4 mM MnCl2 (Sigma), 70 nM RNA template-primer PolyA (Amersham)-Oligo dT(20) biotin labelled (Roche), 20 μM UTP (Roche), 5U RNasin (Promega), 50 mM NaCl (Ambion), 4 μM DIG-11-UTP (Roche), test compound at desired concentration, 5% DMSO and 50-80 ng NS5B (Replizyme(V, UK) or 200-500 ng of recombinant NS5BA21 HCV RdRp enzyme. After 1 hour incubation at 30° C, the reaction is stopped by the addition of 5 μl 0.5 M EDTA and the solution is transferred to a streptavidin coated 96 well plate (Roche). Standard ELISA detection using Anti DIG-POD antibody (Roche) and BM Blue substrate is applied before measuring Abs at 450 nm. An illustration of the assay can be found in FIG. 1.

[2] = test system: Huh-7 cells, sub-genomic genotype 1a HCV replicon H/SG-Neo; test: Inhibition of HCV replication in cell culture, genotype 1a replicon; type: cell-based, hepatitis C virus; conditions: for EC50: Huh-7, genotype 1a replicon, intracellular HCV RNA 24 h after 3 daily doses; for Selectivity Index (CC50/EC50): genotype 1a replicon, CC50 by neutral red uptake
Procedure: (§2) Test compounds were solubilized at 30 mM in 100% tissue culture grade DMSO (Sigma, Inc.). Aliquots of test compounds sufficient for one daily treatment were made in individual tubes and all material was stored at −20° C. On each day of treatment, daily aliquots of the test compounds were suspended in culture medium at room temperature and immediately added to the cell cultures. Compounds were added to dividing cultures once daily for three days at concentrations ranging from about 30 μM to about 0.0003 μM. Media was changed with each addition of compound. The assays were started when cell cultures were at about 30-50% confluence, and the cells reached confluence during the last day of treatment. The assays included untreated control cultures (six total), and triplicate cultures treated with α-interferon and ribavirin as positive antiviral and toxicity controls.
(§3) Intracellular HCV RNA levels and cytotoxicity were assessed in triplicate 24 hours after the last compound dose.

HCV RdRp (NS5B) = HCV RdRp (NS5B) (UniProt P26663); type: biochemical, hepatitis C virus
[3] = test system: Huh-7 cells, genotype 1b HCV replicon; test: Inhibition of HCV replication in cell culture, genotype 1b replicon; type: cell-based, hepatitis C virus; conditions: for EC50: Huh-7, genotype 1b replicon, intracellular HCV RNA 24 h after 3 daily doses; for Selectivity Index (CC50/EC50): genotype 1b replicon, CC50 by neutral red uptake
Procedure: as §2, §3

[4] = target: recombinant NS5BΔ21 HCV RdRp enzyme (genotype 1b, produced in-house) (UniProt P26663); test: RdRp assay with ELISA, recombinant in-house enzyme; type: biochemical, hepatitis C virus; conditions: read-out: Experimental IC50, Recombinant
Procedure: as §1

HCV RdRp = target: T2, HCV RdRp (Hepatitis C virus genotype 1b, UniProt P26663); conditions: literature value; read-out: Published IC50; cited from earlier work
T2 construct: The HCV encoded RNA-dependent RNA polymerase (HCV RdRp), also known as non-structural protein 5B (NS 5B)

[5] = test system: NS5B (Replizyme, UK), HCV genotype 1b Δ21 RdRp; type: biochemical, hepatitis C virus
Procedure: as §1

[6] = Hepatitis C virus, Huh-7, 24 h, read-out: EC50
[7] = read-out: Experimental IC50, Replizyme; Replizyme enzyme

Chain of HCV RdRp (NS5B) (P26663 whole entry, looked up): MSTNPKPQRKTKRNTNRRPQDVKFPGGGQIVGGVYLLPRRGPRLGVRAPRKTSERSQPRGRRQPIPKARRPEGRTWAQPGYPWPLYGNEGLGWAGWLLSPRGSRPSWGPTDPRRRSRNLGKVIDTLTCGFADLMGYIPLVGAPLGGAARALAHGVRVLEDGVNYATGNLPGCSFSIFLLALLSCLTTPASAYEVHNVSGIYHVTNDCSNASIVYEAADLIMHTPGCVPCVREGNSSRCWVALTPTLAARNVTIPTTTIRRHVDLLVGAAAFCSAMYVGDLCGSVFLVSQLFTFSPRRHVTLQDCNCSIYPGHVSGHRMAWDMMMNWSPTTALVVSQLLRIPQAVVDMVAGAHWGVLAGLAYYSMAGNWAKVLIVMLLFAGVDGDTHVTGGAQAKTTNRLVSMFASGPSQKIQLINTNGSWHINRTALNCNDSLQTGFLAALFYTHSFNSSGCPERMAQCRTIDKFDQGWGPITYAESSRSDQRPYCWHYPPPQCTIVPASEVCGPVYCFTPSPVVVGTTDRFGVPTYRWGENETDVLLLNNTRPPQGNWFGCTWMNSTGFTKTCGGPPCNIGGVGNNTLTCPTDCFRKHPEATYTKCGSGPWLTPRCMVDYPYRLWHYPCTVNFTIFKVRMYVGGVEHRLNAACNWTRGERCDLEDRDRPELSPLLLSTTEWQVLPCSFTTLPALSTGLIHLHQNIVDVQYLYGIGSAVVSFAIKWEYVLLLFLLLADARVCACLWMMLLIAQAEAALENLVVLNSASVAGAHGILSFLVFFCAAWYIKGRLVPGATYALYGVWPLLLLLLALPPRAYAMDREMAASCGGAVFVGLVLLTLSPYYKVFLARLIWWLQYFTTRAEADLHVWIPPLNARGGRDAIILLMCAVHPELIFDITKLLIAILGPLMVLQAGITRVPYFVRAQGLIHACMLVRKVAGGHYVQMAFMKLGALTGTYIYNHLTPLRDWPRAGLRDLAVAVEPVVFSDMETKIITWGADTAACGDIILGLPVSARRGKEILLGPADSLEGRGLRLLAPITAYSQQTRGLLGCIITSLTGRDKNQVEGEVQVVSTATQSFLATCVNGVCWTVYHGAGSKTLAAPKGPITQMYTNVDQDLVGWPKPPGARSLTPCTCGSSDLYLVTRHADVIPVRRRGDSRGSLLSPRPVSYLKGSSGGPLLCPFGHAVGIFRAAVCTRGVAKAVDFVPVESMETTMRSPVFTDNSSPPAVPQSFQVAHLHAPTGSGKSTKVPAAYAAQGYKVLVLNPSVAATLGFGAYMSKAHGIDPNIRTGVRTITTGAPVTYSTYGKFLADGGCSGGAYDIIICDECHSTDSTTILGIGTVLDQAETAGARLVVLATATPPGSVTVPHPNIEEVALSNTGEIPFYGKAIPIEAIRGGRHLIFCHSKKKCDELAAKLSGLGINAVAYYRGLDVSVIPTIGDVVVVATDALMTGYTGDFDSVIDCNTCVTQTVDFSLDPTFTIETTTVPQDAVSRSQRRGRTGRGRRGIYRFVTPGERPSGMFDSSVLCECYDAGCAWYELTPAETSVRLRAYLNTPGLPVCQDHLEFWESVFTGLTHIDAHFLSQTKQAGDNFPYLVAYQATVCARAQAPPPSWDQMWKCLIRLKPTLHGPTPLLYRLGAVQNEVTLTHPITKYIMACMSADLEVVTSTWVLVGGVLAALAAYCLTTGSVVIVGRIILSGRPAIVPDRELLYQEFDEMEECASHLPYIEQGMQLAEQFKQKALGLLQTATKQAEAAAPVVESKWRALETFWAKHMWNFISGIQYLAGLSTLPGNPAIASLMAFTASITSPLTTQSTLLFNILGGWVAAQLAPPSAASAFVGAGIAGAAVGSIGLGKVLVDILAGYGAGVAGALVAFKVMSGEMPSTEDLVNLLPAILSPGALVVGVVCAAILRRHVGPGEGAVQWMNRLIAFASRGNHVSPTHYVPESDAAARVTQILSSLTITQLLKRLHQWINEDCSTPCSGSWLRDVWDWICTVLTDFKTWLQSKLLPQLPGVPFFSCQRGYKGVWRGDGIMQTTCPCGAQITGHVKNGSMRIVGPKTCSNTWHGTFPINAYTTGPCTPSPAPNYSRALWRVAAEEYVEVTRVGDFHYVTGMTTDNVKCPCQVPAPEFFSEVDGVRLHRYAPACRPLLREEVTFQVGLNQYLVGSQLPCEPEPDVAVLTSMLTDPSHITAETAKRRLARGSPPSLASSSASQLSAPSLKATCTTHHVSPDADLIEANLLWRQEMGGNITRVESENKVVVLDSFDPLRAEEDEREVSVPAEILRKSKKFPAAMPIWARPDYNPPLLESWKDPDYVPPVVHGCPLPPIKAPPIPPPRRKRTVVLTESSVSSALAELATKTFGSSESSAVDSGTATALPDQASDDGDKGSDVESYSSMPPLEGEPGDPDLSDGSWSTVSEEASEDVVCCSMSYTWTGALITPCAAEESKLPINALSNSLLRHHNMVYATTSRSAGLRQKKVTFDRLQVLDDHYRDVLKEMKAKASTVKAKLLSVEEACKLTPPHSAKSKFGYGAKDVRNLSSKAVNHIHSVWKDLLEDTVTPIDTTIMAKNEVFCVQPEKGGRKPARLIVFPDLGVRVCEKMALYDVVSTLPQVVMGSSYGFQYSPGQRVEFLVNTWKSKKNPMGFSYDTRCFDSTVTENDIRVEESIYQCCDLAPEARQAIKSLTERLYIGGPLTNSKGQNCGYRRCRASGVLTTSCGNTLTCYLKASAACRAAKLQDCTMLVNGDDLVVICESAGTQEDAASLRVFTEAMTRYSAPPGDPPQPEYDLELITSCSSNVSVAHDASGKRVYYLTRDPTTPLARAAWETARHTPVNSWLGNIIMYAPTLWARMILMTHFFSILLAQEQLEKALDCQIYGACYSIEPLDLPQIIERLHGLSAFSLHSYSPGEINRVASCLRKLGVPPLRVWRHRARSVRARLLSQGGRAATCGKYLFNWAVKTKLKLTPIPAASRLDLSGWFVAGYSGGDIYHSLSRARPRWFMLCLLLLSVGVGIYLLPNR
T2 sequence (P26663 2420-3010): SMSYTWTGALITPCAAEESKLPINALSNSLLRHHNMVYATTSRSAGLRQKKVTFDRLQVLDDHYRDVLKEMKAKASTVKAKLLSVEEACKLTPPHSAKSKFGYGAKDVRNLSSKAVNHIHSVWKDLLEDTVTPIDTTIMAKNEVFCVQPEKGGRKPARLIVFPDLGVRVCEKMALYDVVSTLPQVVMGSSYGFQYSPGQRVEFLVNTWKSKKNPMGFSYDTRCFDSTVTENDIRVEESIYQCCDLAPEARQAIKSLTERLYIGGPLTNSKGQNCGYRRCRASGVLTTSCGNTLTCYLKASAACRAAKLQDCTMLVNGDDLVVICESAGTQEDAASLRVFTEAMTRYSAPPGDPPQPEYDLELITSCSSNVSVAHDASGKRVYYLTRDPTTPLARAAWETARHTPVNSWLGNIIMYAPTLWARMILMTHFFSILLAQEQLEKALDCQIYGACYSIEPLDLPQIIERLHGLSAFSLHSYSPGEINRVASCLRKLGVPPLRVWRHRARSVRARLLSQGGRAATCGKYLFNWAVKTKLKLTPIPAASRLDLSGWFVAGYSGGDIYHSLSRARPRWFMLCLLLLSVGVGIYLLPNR

Row | SMILES | IC50 (HCV RdRp (NS5B)) [µM] | EC50 ([2]; Hepatitis C virus) [µM] | Selectivity Index (CC50/EC50) [2] | EC50 [3, 6] [µM] | Selectivity Index (CC50/EC50) [3] | IC50 [1, 7] [µM] | IC50 [4] [µM] | IC50 (HCV RdRp) [µM] | other results
1 | O=c1ccn([C@@H]2O[C@H](COP(=O)(O)OP(=O)(O)OP(=O)(O)O)C[C@H]2O)c(=O)[nH]1 [3′-dUTP] |  |  |  |  |  |  |  |  | IC50 ([1]; Replizyme enzyme; read-out: Experimental IC50, Replizyme): 0.13 µM
2 | Cc1ccc(NC(=O)[C@H](CCCCN)NCc2ccc(NC(=O)Nc3ccncc3)cc2)cc1 [Compound 262, (S)-6-AMINO-2-[4-(3-PYRIDIN-4-YL-UREIDO)-BENZYLAMINO]-HEXANOIC ACID P-TOLYLAMIDE] | < 10 |  |  |  |  |  |  |  | EC50 [2]: < 0.5 µM; EC50 [3]: 2 to 0.5 μM
3 | Cc1ccc(NC(=O)[C@H](CCCCN)NC(=O)Nc2ccc(OCc3ccccc3)cc2)cc1 [Compound 2, (S)-6-AMINO-2-[3-(4-BENZYLOXY-PHENYL)-UREIDO]-HEXANOIC ACID P-TOLYLAMIDE] | 10 to 50 | < 0.5 | 20 to 100 | < 0.5 | >100 |  |  |  | 
4 | Cc1ccc(NC(=O)[C@@H](CCCCN)NC(=O)Nc2ccc(OCc3ccccc3)cc2)cc1 [Compound 172, (R)-6-AMINO-2-[3-(4-BENZYLOXY-PHENYL)-UREIDO]-HEXANOIC ACID P-TOLYLAMIDE] | 10 to 50 | < 0.5 | 20 to 100 | 0.5 to 2 | <20 |  |  |  | 
5 | CCCCn1c(=O)c(C2=NS(=O)(=O)c3ccccc3N2)c(O)c2ccccc21 |  |  |  |  |  | 1 | 1.8 | 0.24 | 
6 | O=C(O)c1ccc2c(c1)nc(-c1ccccn1)n2C1CCCCC1 |  |  |  |  |  | 69 | 3.5 | 4.36 | times less inhibition with the Replizyme enzyme than with the prepared enzyme [5]: about 20
7 | Cc1cc2cc(NC(=O)[C@H](CCCNC(=O)CN)NC(=O)Nc3ccc4c(c3)Cc3ccccc3-4)ccc2[nH]1 [Compound 297, (S)-5-(2-AMINO-ACETYLAMINO)-2-[3-(9H-FLUOREN-2-YL)-UREIDO]-PENTANOIC ACID (2-METHYL-1H-INDOL-5-YL)-AMIDE] | < 10 | < 0.5 | >100 | < 0.5 | >100 |  |  |  | 
8 | O=C(O)COc1ccc2[nH]cc(C[C@H](NC(=O)c3ccc4c(c3)nc(-c3ccoc3)n4C3CCCCC3)C(=O)O)c2c1 |  |  |  |  |  | 1.3 | 0.06 | 1.15 | times less inhibition with the Replizyme enzyme than with the prepared enzyme [5]: about 20
9 | CC(C)Cn1c(=O)c(C2=Nc3ccccc3S(=O)(=O)N2)c(O)c2ccccc21 |  |  |  |  |  | 2.3 | 2.8 | 0.34 | 

From patent US20070021434A1, “NON-NUCLEOSIDE ANTI-HEPACIVIRUS AGENTS AND USES THEREOF” (Migenix Inc., priority 2005, published 2007)
